Results reported in patent publication US9441012B2, “Fluorinated epoxyketone-based compounds and uses thereof as proteasome inhibitors” (FLUORINOV PHARMA INC., priority 2012, dated 2016).

Assays:
Test in all cases: Proteasome subunit activity in murine red blood cells after oral administration
Assay type in all cases: in vivo, NOD/SCID mice
Settings in all cases: oral gavage, Example 1 50 mg/kg, Example 26 60 mg/kg
[1] = target: T1, Caspase-like (C-L) proteasome activity (Mus musculus, UniProt Q60692)
T1 construct: RBCs were lysed with assay lysis buffer and incubated on ice for 30 minutes; from tissue; host or cells: red blood cells of NOD/SCID mice after oral dosing
T1 sequence (Q60692 1-238): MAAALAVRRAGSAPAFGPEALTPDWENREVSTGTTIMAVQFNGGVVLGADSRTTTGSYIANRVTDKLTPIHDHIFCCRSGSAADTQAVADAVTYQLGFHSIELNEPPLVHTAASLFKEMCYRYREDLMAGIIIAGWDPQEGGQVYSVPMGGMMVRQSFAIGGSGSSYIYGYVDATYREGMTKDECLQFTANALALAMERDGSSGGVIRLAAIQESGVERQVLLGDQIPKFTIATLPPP
Description: (§1) Cells were harvested by centrifugation at 1,200 rpm at room temperature. Cell pellets were washed with PBS and lysed with assay lysis buffer (50 mM HEPES (N-2-hydroxyethylpiperazine-N′-2-ethanesulfonic acid), pH 7.5; 150 mM NaCl; 1% Triton X-100; 2 mM ATP). Cell lysates were incubated on ice for 30 minutes, mixed by vortex every 5 minutes, and then centrifuged at 12,000 g for 10 minutes. The supernatant was transferred to a 96-well plate. For each assay, 10 μg of total protein were incubated for 1 hour at 37° C. with increasing concentrations (1 nM to 10 μM) of test compound diluted in assay buffer (50 mM Tris-HCl (tris(hydroxymethyl)aminomethane-HCl), pH 7.5; 150 mM NaCl). DMSO alone was used as a control in every assay plate. After incubation, a specific fluorogenic proteasome substrate was added to each assay reaction at a final concentration of 40 μM in a total volume of 100 μL. N-Succinyl-Leu-Leu-Val-Tyr-7-amino-4-methylcoumarin (Suc-Leu-Leu-Val-Tyr-AMC) was used for measuring chymotrypsin-like (CT-L) activity, t-butoxycarbonyl-Leu-Arg-Arg-7-amino-4-methylcoumarin (Boc-Leu-Arg-Arg-AMC) for trypsin-like (T-L) activity, and benzyloxycarbonyl-L-leucyl-L-leucyl-L-glutamyl-7-amino-4-methylcoumarin (Z-Leu-Leu-Glu-AMC) for caspase-like (C-L) activity. The excitation wavelength was set at 360 nm and the fluorescence emission wavelength of AMC was detected at 460 nm. The fluorescence of free AMC released during the enzymatic reaction was measured with a SpectraMax M5 fluorescent spectrophotometric plate reader (Molecular Devices, Sunnyvale, Calif.). AMC release rate was measured at 37° C. in a kinetic mode, recording every 5 minutes for 30 minutes. Experiments were performed in triplicate and repeated at least twice.
(§2) All mouse experiments were performed in accordance with approval from the Ontario Cancer Institute institutional animal review board. Five- to six-week-old male non-obese diabetic/severe combined immunodeficient (NOD/SCID) mice were grouped randomly (n=3 mice per group). Mice were administered vehicle (5% DMSO, 20% Cremophor) or compounds of Formula I at different doses either intravenously or by oral gavage, and venous blood samples (20-50 μL) were collected from each mouse over 24 hours. Blood samples were mixed with heparin (APP Pharmaceuticals; Schaumburg, Ill.) in 0.5 mL tubes in accordance with the manufacturer's instructions. After centrifugal separation at 3,000 g for 10 minutes, red blood cells (RBCs) in the bottom layer were transferred into a new tube and stored at −70° C. until use. RBCs were lysed with assay lysis buffer and incubated on ice for 30 minutes, mixing by vortex every 5 minutes, and then centrifuged at 12,000 g for 10 minutes. The supernatant was transferred to a 96-well plate and proteasome activity was measured as described in above for tumor cell lysates.
(§3) Proteasome subunit activity (Chymotrypsin-like, Trypsin-like, Caspase-like, CT-L, T-L, C-L, respectively) were monitored over the course of 24 hrs following […] administration of representative compounds of Formula I. NOD/SCID mice were treated with the compound from Example 1 (50 mg/kg by oral gavage) and the compound from Example 26 (60 mg/kg by oral gavage) or vehicle control for up to 24 hours, as described above.
(§4) Table 10 summarizes the data for the representative compounds of Formula (I); the compounds of Examples 1 and 26.

[2] = target: T2, Trypsin-like (T-L) proteasome activity (Mus musculus, UniProt P70195)
T2 construct: RBCs were lysed with assay lysis buffer and incubated on ice for 30 minutes; from tissue; host or cells: red blood cells of NOD/SCID mice after oral dosing
T2 sequence (P70195 44-277): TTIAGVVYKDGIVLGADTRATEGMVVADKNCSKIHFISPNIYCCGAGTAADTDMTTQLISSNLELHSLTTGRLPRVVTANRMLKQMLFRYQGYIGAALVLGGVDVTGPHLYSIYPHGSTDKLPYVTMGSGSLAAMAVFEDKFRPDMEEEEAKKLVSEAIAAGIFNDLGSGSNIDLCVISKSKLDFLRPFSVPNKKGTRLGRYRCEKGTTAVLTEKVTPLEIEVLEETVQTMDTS
Description: as §1, §2, §3, §4

[3] = target: T3, chymotrypsin-like (CT-L) proteasome activity (Mus musculus, UniProt O55234)
T3 construct: RBCs were lysed with assay lysis buffer and incubated on ice for 30 minutes; from tissue; host or cells: red blood cells of NOD/SCID mice after oral dosing
T3 sequence (O55234 60-264): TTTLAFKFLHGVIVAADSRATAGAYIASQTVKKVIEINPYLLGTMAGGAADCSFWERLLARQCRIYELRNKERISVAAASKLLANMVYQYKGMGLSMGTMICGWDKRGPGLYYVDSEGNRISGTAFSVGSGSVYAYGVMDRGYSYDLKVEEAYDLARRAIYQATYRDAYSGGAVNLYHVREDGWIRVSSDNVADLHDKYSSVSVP
Description: as §1, §2, §3, §4

Structure (SMILES)	Caspase-like (C-L) mean residual activity relative to vehicle treated controls ([1]; 30 min)	Caspase-like (C-L) mean residual activity relative to vehicle treated controls ([1]; 24 hrs)	Caspase-like (C-L) mean residual activity relative to vehicle treated controls ([1]; time 0)	Trypsin-like (T-L) mean residual activity relative to vehicle treated controls ([2]; 30 min)	Trypsin-like (T-L) mean residual activity relative to vehicle treated controls ([2]; 24 hrs)	Trypsin-like (T-L) mean residual activity relative to vehicle treated controls ([2]; time 0)	chymotrypsin-like (CT-L) mean residual activity relative to vehicle treated controls ([3]; 30 min)	chymotrypsin-like (CT-L) mean residual activity relative to vehicle treated controls ([3]; 24 hours)	chymotrypsin-like (CT-L) mean residual activity relative to vehicle treated controls ([3]; time 0)
C[C@]1(C(=O)[C@H](Cc2ccccc2)NC(=O)[C@H](COC(F)F)NC(=O)[C@H](COC(F)F)NC(=O)CN2CCOCC2)CO1 [Example 26, (S)-N-{(S)-1-[(S)-1-Benzyl-2-((R)-2-methyl-oxiranyl)-2-oxo-ethylcarbamoyl]-2-difluoromethoxyethyl}-3-difluoromethoxy-2-(2-morpholin-4-yl-acetylamino)-propio-namide]	100%	100%	100%	100%	100%	100%	33%	27%	100%
Cc1ncc(C(=O)N[C@@H](COC(F)F)C(=O)N[C@@H](COC(F)F)C(=O)N[C@@H](Cc2ccccc2)C(=O)[C@@]2(C)CO2)s1 [Example 1, 2-methyl-thiazole-5-carboxylic acid ((S)-1-{(S)-1-[(S)-1-benzyl-2-((R)-2-methyloxiranyl)-2-oxo-ethylcarbamoyl]-2-difluoromethoxyethylcarbamoyl}-2-difluoromethoxyethyl)-amide]	100%	100%	100%	100%	100%	100%	27%	22%	100%
